This note sets out measurements from ChEMBL document CHEMBL5365550, “Targeting the Inhibition of B-Cell Lymphoma 2 Protein for the Treatment of Cancer” (ACS Med Chem Lett, 2023).

One assay concerns RS4-11. Nature of the assay: Cytotoxicity against human RS4-11 cells assessed as reduction in cell viability by CellTiter-Glo assay. It is filed as functional, cell-based. (Cellular ATP, detected with luciferase, serves as a proxy for viable cell number.)
Assay [1] deals with Apoptosis regulator Bcl-2 (Homo sapiens, UniProt P10415). Nature of the assay: Inhibition of human Bcl-2 expressed in Escherichia coli BL21(DE3) T1R cells preincubated under shaking condition for 1 min and measured after 3 hrs by TR-FRET assay. A general note: Time-resolved FRET reads energy transfer from a long-lived donor to a nearby acceptor.
Sequence of Apoptosis regulator Bcl-2 (P10415 whole entry): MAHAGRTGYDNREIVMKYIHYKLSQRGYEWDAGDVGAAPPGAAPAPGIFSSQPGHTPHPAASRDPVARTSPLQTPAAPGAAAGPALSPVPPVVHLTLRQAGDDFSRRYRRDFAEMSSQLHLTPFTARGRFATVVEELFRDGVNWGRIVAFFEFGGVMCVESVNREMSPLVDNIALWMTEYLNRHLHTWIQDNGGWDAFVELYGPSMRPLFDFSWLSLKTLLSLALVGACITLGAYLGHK
For another assay, the target named is Bcl-2-like protein 1 (Homo sapiens, UniProt Q07817). Put plainly: Inhibition of human Bcl-xL expressed in Escherichia coli BL21(DE3) T1R cells preincubated under shaking condition for 1 min and measured after 3 hrs by TR-FRET assay.
Sequence of Bcl-2-like protein 1 (Q07817 whole entry): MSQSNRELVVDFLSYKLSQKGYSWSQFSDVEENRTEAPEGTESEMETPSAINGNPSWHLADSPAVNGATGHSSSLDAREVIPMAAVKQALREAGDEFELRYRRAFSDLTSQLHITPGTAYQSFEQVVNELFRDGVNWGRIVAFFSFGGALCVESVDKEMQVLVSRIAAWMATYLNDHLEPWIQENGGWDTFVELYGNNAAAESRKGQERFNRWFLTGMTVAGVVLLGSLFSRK
For a further assay, the system named is MOLT-4. Nature of the assay: Cytotoxicity against human MOLT-4 cells assessed as reduction in cell viability by CellTiter-Glo assay. It counts as functional, cell-based.

Broadly, the EC50 is the concentration giving half of the maximal effect. One may read the Ki as a measure of affinity in units of concentration, obtained from inhibition or displacement. A higher Ki goes with lower affinity. Consider `COC1(CNc2ccc(S(=O)(=O)NC(=O)c3ccc(N4CCN5CC6=C(c7ccc(Cl)cc7)CC(C)(C)C[C@H]6OCCCOC[C@@H]5C4)cc3N3CCCOc4nc5[nH]ccc5cc43)cc2[N+](=O)[O-])CCOCC1`, for which the EC50 with RS4-11 is 4.38 nM; with MOLT-4 it was greater than 10000 nM. The Ki amounted to 2.09 nM in assay [1] and 40.3 nM on Bcl-2-like protein 1.
Turning to `COCC1(F)CC(CNc2ccc(S(=O)(=O)NC(=O)c3ccc(N4CCN5CC6=C(c7ccc(Cl)cc7)CC(C)(C)C[C@H]6OCCCOC[C@@H]5C4)cc3N3CCCOc4nc5[nH]ccc5cc43)cc2[N+](=O)[O-])C1` (stereo partly drawn), the EC50 in the assay on RS4-11 was 10.9 nM; in the assay with MOLT-4, greater than 10000 nM. Moreover, the Ki turned out to be 0.28 nM in assay [1] and 25.8 nM on Bcl-2-like protein 1.
Consider `CC1(C)CC(c2ccc(Cl)cc2)=C2CN3CCN(c4ccc(C(=O)NS(=O)(=O)c5ccc(NC[C@H]6CC[C@](C)(O)CO6)c([N+](=O)[O-])c5)c(N5CCCOc6nc7[nH]ccc7cc65)c4)C[C@H]3COCCCO[C@@H]2C1`, for which the EC50 in the assay on RS4-11 worked out at 0.651 nM; in the assay with MOLT-4, 1220 nM. Besides, the Ki in assay [1] worked out at 0.049 nM; at Bcl-2-like protein 1, 9.3 nM.
For the molecule `CC1(C)CC(c2ccc(Cl)cc2)=C2CN3CCN(c4ccc(C(=O)NS(=O)(=O)c5ccc(NC[C@H]6CC[C@H](O)CO6)c([N+](=O)[O-])c5)c(N5CCCOc6nc7[nH]ccc7cc65)c4)C[C@H]3COCCCO[C@@H]2C1`, the EC50 in the assay with RS4-11 is 0.966 nM; in the assay with MOLT-4, 823 nM.
As for `CC1(C)CC(c2ccc(Cl)cc2)=C2CN3CCN(c4ccc(C(=O)NS(=O)(=O)c5ccc(NC[C@H]6COCCO6)c([N+](=O)[O-])c5)c(N5CCCOc6nc7[nH]ccc7cc65)c4)C[C@H]3COCCCO[C@@H]2C1`, the EC50 with RS4-11 stood at 1.36 nM; in the assay on MOLT-4, 1410 nM. Moreover, the Ki in assay [1] stood at 0.034 nM; at Bcl-2-like protein 1 it was 5.76 nM.
As to `CC1(C)CC(c2ccc(Cl)cc2)=C2CN3CCN(c4ccc(C(=O)NS(=O)(=O)c5ccc(NCC6(O)CCOCC6)c([N+](=O)[O-])c5)c(N5CCCOc6nc7[nH]ccc7cc65)c4)C[C@H]3COCCCO[C@@H]2C1`, the figures for the EC50 in the assay with RS4-11 and in the assay with MOLT-4 were 1.43 nM and 426 nM, respectively. The Ki turned out to be 0.223 nM in assay [1] and 8.31 nM at Bcl-2-like protein 1.
Turning to `CC1(C)CC(c2ccc(Cl)cc2)=C2CN3CCN(c4ccc(C(=O)NS(=O)(=O)c5ccc(NC[C@H]6CC[C@@](C)(O)CC6)c([N+](=O)[O-])c5)c(N5CCCOc6nc7[nH]ccc7cc65)c4)C[C@H]3COCCCO[C@@H]2C1`, the figures for the EC50 in the assay with RS4-11 and in the assay with MOLT-4 were 1.47 nM and 117 nM, respectively. In addition, the Ki in assay [1] was determined as 0.061 nM; on Bcl-2-like protein 1, 11.1 nM.
For `CO[C@H]1C[C@H](Nc2ccc(S(=O)(=O)NC(=O)c3ccc(N4CCN5CC6=C(c7ccc(Cl)cc7)CC(C)(C)C[C@H]6OCCCOC[C@@H]5C4)cc3N3CCCOc4nc5[nH]ccc5cc43)cc2[N+](=O)[O-])C1`, the results for the EC50 with RS4-11 and in the assay on MOLT-4 were 4.1 nM and greater than 10000 nM, respectively. The Ki in assay [1] was determined as 2.58 nM; at Bcl-2-like protein 1, 39 nM.
As to `CC1(C)CC(c2ccc(Cl)cc2)=C2CN3CCN(c4ccc(C(=O)NS(=O)(=O)c5ccc(NC[C@H]6CC[C@](C)(O)CC6)c(Cl)c5)c(N5CCCOc6nc7[nH]ccc7cc65)c4)C[C@H]3COCCCO[C@@H]2C1`, the half-maximal effective concentration (EC50) in the assay on RS4-11 is 17.7 nM; in the assay with MOLT-4 it was greater than 10000 nM. Besides, the Ki in assay [1] was 0.085 nM; at Bcl-2-like protein 1, 29.7 nM.
With `CO[C@H]1CC[C@H](CNc2ccc(S(=O)(=O)NC(=O)c3ccc(N4CCN5CC6=C(c7ccc(Cl)cc7)CC(C)(C)C[C@H]6OCCCOC[C@@H]5C4)cc3N3CCCOc4nc5[nH]ccc5cc43)cc2[N+](=O)[O-])OC1`, the EC50 in the assay with MOLT-4 amounted to 1700 nM.
Take `CC1(C)CC(c2ccc(Cl)cc2)=C2CN3CCN(c4ccc(C(=O)NS(=O)(=O)c5cnc(OCC6(F)CCOCC6)c(Cl)c5)c(N5CCCOc6nc7[nH]ccc7cc65)c4)C[C@H]3COCCCO[C@@H]2C1`: the EC50 was 5.46 nM in the assay on RS4-11 and greater than 10000 nM with MOLT-4. The molecule further gave a Ki on Bcl-2-like protein 1 greater than 661 nM.
